Source: article PMC9837035 (Nature Communications, 2023)
“And” between values parts separate entries of the source, which are not always exact repeats. Identical values can stand only once. Like-named read-outs stand apart in the source and are kept apart here.

Assays:
G9a = biological target: T1, G9a (Homo sapiens, UniProt Q96KQ7); assay: biochemical
T1 sequence (Q96KQ7 1-1210): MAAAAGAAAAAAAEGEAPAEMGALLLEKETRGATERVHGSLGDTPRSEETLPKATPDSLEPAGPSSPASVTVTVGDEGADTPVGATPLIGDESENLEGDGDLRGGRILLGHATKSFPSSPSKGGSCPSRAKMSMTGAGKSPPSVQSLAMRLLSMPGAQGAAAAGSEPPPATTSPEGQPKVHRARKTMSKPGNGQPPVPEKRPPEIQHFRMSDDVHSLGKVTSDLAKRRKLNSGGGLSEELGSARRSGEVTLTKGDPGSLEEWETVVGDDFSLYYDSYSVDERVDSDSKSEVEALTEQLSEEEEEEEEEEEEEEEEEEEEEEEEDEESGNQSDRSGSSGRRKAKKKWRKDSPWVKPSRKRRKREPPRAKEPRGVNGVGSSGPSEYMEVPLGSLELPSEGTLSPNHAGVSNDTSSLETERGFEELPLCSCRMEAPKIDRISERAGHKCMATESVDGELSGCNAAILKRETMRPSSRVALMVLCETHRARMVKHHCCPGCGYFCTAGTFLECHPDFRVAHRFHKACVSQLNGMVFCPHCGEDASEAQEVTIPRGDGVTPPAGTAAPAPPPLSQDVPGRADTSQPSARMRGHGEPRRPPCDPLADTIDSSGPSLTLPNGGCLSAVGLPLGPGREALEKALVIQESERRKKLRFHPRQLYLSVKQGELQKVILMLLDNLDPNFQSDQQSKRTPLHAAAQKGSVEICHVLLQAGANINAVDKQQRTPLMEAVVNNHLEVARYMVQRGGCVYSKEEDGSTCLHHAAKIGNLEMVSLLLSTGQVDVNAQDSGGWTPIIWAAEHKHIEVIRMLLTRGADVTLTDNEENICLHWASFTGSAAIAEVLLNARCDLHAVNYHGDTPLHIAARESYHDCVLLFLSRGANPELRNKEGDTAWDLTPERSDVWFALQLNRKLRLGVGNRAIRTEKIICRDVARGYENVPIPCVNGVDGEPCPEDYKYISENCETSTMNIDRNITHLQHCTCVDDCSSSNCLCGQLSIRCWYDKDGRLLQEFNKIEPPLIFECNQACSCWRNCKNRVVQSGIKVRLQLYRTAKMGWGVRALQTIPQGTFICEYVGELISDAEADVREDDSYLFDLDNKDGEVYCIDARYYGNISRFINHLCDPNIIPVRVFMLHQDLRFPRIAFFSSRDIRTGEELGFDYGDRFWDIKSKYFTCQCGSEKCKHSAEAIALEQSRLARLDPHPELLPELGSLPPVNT

HUDEP-2 cells = assay: RNA-seq analysis of HUDEP-2 cells; format: cell-based, human
Protocol: Total RNAs were extracted using an RNeasy Plus Mini Kit (QIAGEN). RNA-seq experiments were performed by GENEWIZ or Rhelixa. Gene Ontology (GO) analysis in Supplementary Fig. 7a, the statistical test was performed by Wallenius in goseq software. In Supplementary Tables 8(1-3), the statistical test (adjp) was determined using multiple comparisons analysis, Benjamini-Hochberg adjusted FDR test of the default of AltAnalyze (Ver. 2.0).

EZH1 = EZH1 (Homo sapiens, UniProt Q92800); assay: biochemical
EZH1, sequence (Q92800 whole entry): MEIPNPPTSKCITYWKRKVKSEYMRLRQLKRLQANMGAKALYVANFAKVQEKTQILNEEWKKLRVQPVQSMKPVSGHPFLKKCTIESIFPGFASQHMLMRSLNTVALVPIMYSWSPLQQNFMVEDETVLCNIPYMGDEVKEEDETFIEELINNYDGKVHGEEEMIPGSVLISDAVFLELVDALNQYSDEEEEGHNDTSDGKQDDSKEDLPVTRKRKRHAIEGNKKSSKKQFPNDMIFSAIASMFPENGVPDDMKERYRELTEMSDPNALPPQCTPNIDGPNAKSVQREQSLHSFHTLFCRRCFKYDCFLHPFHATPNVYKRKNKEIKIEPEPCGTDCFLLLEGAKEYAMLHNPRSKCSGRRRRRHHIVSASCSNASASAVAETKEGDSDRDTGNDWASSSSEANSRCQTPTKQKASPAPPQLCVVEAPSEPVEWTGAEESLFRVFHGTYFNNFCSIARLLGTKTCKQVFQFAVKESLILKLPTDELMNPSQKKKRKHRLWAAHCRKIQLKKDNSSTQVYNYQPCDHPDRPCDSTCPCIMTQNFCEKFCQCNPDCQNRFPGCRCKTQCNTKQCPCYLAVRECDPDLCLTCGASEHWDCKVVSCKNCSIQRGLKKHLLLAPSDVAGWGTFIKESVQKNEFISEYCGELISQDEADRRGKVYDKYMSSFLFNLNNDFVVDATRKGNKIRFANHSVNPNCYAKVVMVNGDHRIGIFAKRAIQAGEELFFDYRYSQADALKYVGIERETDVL
EZH1, sequence (O75530 whole entry partner): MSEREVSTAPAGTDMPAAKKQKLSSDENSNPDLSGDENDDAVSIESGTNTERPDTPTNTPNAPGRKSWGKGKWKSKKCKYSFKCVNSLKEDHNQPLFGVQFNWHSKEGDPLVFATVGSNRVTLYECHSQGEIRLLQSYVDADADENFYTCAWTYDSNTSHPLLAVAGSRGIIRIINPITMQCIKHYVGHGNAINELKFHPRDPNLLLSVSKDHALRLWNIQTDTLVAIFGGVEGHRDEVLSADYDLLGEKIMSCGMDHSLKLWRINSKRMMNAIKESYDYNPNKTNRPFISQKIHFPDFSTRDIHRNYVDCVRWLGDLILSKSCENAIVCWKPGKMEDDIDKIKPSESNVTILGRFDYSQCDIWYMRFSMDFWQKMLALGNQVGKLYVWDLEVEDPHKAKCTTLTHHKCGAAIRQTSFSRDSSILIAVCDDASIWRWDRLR
EZH1, sequence (Q15022 whole entry partner): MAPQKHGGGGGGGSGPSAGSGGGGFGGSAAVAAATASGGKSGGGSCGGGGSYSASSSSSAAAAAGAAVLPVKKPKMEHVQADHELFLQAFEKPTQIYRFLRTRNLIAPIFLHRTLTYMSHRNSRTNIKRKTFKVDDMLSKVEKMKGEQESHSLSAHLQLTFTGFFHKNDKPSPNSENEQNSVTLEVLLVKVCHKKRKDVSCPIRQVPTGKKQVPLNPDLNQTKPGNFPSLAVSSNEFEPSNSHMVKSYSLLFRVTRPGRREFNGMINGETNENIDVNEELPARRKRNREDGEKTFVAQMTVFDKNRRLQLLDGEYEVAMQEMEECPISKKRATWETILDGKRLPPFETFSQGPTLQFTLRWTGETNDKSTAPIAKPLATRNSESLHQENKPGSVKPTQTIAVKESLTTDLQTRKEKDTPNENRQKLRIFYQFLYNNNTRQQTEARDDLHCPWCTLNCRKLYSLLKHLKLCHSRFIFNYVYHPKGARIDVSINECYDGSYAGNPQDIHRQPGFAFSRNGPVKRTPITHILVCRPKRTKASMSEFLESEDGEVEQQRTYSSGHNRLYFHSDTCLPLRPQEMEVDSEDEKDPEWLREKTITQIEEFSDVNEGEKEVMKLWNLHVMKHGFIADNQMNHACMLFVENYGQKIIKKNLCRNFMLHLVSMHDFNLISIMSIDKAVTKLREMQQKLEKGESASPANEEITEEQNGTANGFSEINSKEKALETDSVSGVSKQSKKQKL
EZH1, sequence (Q09028 whole entry partner): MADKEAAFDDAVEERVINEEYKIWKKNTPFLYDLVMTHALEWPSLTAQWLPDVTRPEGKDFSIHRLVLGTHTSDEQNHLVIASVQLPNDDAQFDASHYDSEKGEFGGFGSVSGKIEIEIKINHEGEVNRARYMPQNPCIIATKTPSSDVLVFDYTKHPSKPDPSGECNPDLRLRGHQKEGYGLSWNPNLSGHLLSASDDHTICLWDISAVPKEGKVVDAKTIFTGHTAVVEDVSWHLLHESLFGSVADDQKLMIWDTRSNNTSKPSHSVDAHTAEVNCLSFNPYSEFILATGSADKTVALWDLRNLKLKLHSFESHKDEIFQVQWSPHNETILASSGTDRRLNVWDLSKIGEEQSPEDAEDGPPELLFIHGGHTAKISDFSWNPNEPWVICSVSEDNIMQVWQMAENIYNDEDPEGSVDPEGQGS
EZH1, sequence (Q6ZN18 whole entry partner): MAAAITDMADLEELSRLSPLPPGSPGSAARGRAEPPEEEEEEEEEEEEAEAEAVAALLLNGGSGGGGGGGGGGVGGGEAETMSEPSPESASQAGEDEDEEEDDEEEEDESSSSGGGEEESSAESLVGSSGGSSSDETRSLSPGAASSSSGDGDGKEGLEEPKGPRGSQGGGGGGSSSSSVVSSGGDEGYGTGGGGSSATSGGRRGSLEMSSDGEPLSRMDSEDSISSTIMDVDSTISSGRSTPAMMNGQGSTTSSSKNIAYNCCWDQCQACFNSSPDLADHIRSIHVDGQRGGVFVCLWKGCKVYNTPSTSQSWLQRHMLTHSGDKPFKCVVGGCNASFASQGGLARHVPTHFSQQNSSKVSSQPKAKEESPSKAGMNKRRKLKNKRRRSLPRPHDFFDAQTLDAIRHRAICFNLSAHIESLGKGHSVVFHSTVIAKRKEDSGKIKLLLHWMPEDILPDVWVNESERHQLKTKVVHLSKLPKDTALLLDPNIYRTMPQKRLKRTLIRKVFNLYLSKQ

ASH1L = biological target: T2, ASH1L (Homo sapiens, UniProt Q9NR48); assay: Radioisotope-based methyltransferase assay (selectivity); format: biochemical; conditions: ASH1L, read-out: IC50
T2 construct: purchased Reaction Biology

EZH2 = EZH2 (Homo sapiens, UniProt Q15910); assay: as above
EZH2, sequence (Q15910 whole entry): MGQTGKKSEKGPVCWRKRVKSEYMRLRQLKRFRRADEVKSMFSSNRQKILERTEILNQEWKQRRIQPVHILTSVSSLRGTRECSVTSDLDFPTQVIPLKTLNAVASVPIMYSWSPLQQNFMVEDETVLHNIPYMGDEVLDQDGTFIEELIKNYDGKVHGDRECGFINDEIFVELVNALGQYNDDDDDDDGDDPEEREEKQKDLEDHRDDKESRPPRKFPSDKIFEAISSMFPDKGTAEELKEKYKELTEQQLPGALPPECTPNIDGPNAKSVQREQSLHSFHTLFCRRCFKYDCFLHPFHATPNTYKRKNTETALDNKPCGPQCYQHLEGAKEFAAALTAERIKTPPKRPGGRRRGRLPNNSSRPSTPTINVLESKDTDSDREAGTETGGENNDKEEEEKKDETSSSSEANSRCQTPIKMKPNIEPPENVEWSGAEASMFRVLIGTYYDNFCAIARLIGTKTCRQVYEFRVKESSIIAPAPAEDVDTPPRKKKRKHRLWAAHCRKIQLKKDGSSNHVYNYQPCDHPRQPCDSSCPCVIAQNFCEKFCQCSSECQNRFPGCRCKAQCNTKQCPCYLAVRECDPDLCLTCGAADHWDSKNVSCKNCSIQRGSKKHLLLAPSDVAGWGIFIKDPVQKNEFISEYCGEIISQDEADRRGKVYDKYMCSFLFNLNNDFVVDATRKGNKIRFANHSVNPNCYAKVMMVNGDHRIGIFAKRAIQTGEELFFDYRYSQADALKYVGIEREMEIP
EZH2, sequence (O75530 whole entry partner): as the sequence (O75530 whole entry partner) above
EZH2, sequence (Q15022 whole entry partner): as the sequence (Q15022 whole entry partner) above
EZH2, sequence (Q09028 whole entry partner): as the sequence (Q09028 whole entry partner) above
EZH2, sequence (Q6ZN18 whole entry partner): as the sequence (Q6ZN18 whole entry partner) above

Compound: Cc1c(C(=O)NC(CCC2CC2)C(=O)Nc2ccc(C#N)cc2)[nH]c2c1C(=O)CC(C)(C)C2 (stereo not shown) [RK-701]
- IC50 (G9a): 0.0218 µM and 0.0239 µM
- FoldChange BCL11A (HUDEP-2 cells; HUDEP-2): 1.17±0.09
- FoldChange BGLT3 (HUDEP-2 cells; HUDEP-2): 3.40±0.34
- FoldChange CHD3 (HUDEP-2 cells; HUDEP-2): 0.88±0.02
- FoldChange CHD4 (HUDEP-2 cells; HUDEP-2): 1.00±0.02
- FoldChange DNMT1 (HUDEP-2 cells; HUDEP-2): 0.97±0.02
- FoldChange GATA1 (HUDEP-2 cells; HUDEP-2): 0.97±0.04
- FoldChange GATAD2A (HUDEP-2 cells; HUDEP-2): 0.96±0.03
- FoldChange GATAD2B (HUDEP-2 cells; HUDEP-2): 1.02±0.04
- FoldChange HBA1 (HUDEP-2 cells; HUDEP-2): 1.15±0.13
- FoldChange HBA2 (HUDEP-2 cells; HUDEP-2): 1.19±0.04
- FoldChange HBBP1 (HUDEP-2 cells; HUDEP-2): 0.99±0.02
- FoldChange HBD (HUDEP-2 cells; HUDEP-2): 1.01±0.03
- FoldChange HBE1 (HUDEP-2 cells; HUDEP-2): 4.70±0.71
- FoldChange HBG1 (HUDEP-2 cells; HUDEP-2): 2.51±0.58
- FoldChange HBG2 (HUDEP-2 cells; HUDEP-2): 3.33±0.28
- FoldChange HBM (HUDEP-2 cells; HUDEP-2): 0.96±0.04
- FoldChange HBQ1 (HUDEP-2 cells; HUDEP-2): 1.09±0.05
- FoldChange HBZ (HUDEP-2 cells; HUDEP-2): 0.31±0.08
- FoldChange HDAC1 (HUDEP-2 cells; HUDEP-2): 0.96±0.03
- FoldChange HDAC2 (HUDEP-2 cells; HUDEP-2): 0.95±0.03
- FoldChange IKZF1 (HUDEP-2 cells; HUDEP-2): 1.07±0.01
- FoldChange KLF1 (HUDEP-2 cells; HUDEP-2): 1.02±0.02
- FoldChange LDB1 (HUDEP-2 cells; HUDEP-2): 1.03±0.04
- FoldChange LIN28B (HUDEP-2 cells; HUDEP-2): 0.91±0.07
- FoldChange LMO2 (HUDEP-2 cells; HUDEP-2): 1.28±0.04
- FoldChange MBD2 (HUDEP-2 cells; HUDEP-2): 1.03±0.02
- FoldChange MBD3 (HUDEP-2 cells; HUDEP-2): 0.96±0.02
- FoldChange MIR26B (HUDEP-2 cells; HUDEP-2): 0.96±0.78
- FoldChange MTA1 (HUDEP-2 cells; HUDEP-2): 0.92±0.04
- FoldChange MTA2 (HUDEP-2 cells; HUDEP-2): 0.95±0.02
- FoldChange MYB (HUDEP-2 cells; HUDEP-2): 0.91±0.01
- FoldChange NR2C1 (HUDEP-2 cells; HUDEP-2): 1.11±0.04
- FoldChange NR2C2 (HUDEP-2 cells; HUDEP-2): 0.97±0.04
- FoldChange RBBP4 (HUDEP-2 cells; HUDEP-2): 0.96±0.03
- FoldChange RBBP7 (HUDEP-2 cells; HUDEP-2): 0.98±0.03
- FoldChange SOX6 (HUDEP-2 cells; HUDEP-2): 1.70±0.07
- FoldChange TAL1 (HUDEP-2 cells; HUDEP-2): 1.12±0.04
- FoldChange TCF3 (HUDEP-2 cells; HUDEP-2): 0.92±0.02
- FoldChange ZBTB7A (HUDEP-2 cells; HUDEP-2): 0.98±0.04
- FoldChange ZFPM1 (HUDEP-2 cells; HUDEP-2): 0.90±0.09
- number of genes transcriptionally upregulated (HUDEP-2 cells; HUDEP-2): 204 genes
- FoldChange HBB (HUDEP-2 cells; HUDEP-2, 1 μM, 4 days): 1.13±0.05
- log2FoldChange CTD-2643I7.1 (BGLT3) (HUDEP-2 cells; HUDEP-2, 1 μM, 4 days): 1.72
- log2FoldChange HBE1 (HUDEP-2 cells; HUDEP-2, 1 μM, 4 days): 2.16
- log2FoldChange HBG1 (HUDEP-2 cells; HUDEP-2, 1 μM, 4 days): 1.23
- log2FoldChange HBG2 (HUDEP-2 cells; HUDEP-2, 1 μM, 4 days): 1.73
- log2FoldChange HBZ (HUDEP-2 cells; HUDEP-2, 1 μM, 4 days): -1.67
- IC50 (EZH1): > 100 µM
- IC50 (ASH1L; 1 μM SAM): 79.4 µM
- IC50 (ASH1L; RK-701 in duplicate): 80.4 µM and 78.4 µM
- IC50 (EZH2): > 100 µM
